According to publication PMC8343220, “The selectivity of α‐adrenoceptor agonists for the human α1A, α1B, and α1D‐adrenoceptors” (Pharmacology Research & Perspectives, 2021):
Entries after “also recorded” stand apart in the source; their conditions may differ. Like-named read-outs stand apart in the source and are kept apart here. Marks after values point to notes of the source that are not given here.

Assays:
[1] = tested on: parental CHO cell line without any transfected receptors; test: Intracellular calcium mobilization, parent CHO cells without transfected receptors; type: cell-based, Chinese hamster; settings: for Emax: Cricetulus griseus, CHO cells without transfected receptors, response at maximum concentration used (c2), as % of ionomycin (10μM) response, mean ± s.e.m., read-out: Intracellular calcium release % ionomycin
[2] = tested on: parental CHO cell line without any transfected receptors; test: ERK1/2‐phosphorylation, parent CHO cells without transfected receptors; type: cell-based, Chinese hamster
[3] = tested on: parental CHO cell line without any transfected receptors; test: ^3H‐cAMP accumulation, parent CHO cells without transfected receptors; type: cell-based, Chinese hamster
[4] = tested on: parental CHO cell line without any transfected receptors; test: Forskolin‐stimulated cAMP accumulation, parent CHO cells without transfected receptors; type: cell-based, Chinese hamster
[5] = target: T1, human α1A‐adrenoceptor (Homo sapiens, UniProt P35348); test: ^3H‐prazosin whole‐cell radioligand binding, CHO‐α1A cells
T1 construct: expressed in transfected cells; host or cells: CHO-K1
T1 sequence (P35348 1-466): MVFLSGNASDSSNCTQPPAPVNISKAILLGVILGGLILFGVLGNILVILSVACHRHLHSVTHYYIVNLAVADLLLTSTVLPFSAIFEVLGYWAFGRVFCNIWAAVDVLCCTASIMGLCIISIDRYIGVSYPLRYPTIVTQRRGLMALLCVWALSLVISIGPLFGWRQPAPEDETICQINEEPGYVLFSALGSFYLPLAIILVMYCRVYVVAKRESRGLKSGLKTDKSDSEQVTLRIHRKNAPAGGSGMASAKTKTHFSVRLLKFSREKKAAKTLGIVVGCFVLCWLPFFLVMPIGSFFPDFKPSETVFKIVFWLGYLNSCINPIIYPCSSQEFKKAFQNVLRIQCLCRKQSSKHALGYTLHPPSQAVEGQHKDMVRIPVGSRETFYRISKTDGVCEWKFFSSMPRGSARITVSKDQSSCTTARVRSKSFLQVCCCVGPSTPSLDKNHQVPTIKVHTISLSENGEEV

[6] = target: T2, human α1B‐adrenoceptor (Homo sapiens, UniProt P35368); test: ^3H‐prazosin whole‐cell radioligand binding, CHO‐α1B cells
T2 construct: expressed in transfected cells; host or cells: CHO-K1
T2 sequence (P35368 1-520): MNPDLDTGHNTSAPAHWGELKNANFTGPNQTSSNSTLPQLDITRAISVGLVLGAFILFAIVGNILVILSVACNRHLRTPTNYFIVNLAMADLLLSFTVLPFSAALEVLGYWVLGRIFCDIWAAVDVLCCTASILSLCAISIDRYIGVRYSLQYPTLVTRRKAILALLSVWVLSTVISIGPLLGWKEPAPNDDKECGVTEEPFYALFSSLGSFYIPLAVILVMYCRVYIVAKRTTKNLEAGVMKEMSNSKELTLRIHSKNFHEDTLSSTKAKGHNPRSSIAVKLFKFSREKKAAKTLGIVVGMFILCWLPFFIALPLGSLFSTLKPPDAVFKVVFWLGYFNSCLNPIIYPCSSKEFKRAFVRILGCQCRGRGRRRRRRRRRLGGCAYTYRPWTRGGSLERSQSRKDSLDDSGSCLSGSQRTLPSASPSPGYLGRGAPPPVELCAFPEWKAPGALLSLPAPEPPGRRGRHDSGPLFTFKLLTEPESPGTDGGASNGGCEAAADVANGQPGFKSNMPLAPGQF

[7] = target: T3, human α1D‐adrenoceptor (full length) (Homo sapiens, UniProt P25100); test: ^3H‐prazosin whole‐cell radioligand binding, CHO‐α1D cells
T3 construct: human α1D‐adrenoceptor (full length) were used; expressed in transfected cells; host or cells: CHO-K1
T3 sequence (P25100 1-572): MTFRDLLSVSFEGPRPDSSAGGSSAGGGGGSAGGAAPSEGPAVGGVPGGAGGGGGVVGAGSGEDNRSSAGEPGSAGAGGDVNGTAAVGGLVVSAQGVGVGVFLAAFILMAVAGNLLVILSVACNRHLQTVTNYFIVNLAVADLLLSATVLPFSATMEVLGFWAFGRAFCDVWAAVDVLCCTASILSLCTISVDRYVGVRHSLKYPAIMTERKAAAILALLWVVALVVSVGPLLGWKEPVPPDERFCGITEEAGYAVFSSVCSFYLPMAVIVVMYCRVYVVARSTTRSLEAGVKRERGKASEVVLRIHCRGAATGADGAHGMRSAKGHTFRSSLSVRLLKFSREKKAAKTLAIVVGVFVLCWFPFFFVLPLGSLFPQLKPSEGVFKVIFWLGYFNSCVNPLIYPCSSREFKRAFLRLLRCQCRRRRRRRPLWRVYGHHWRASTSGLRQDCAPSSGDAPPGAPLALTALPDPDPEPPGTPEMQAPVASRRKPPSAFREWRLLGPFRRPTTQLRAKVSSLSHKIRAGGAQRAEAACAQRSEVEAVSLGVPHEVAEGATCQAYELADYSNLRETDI

[8] = target: T1, human α1A‐adrenoceptor; test: Intracellular free calcium mobilization, CHO‐α1A cells; type: cell-based
[9] = target: T2, human α1B‐adrenoceptor; test: Intracellular free calcium mobilization, CHO‐α1B cells; type: cell-based
[10] = target: T3, human α1D‐adrenoceptor (full length); test: Intracellular free calcium mobilization, CHO‐α1D cells; type: cell-based
[11] = target: T1, human α1A‐adrenoceptor; test: ERK1/2‐phosphorylation (Surefire Alphascreen), CHO‐α1A cells; type: cell-based
[12] = target: T2, human α1B‐adrenoceptor; test: ERK1/2‐phosphorylation (Surefire Alphascreen), CHO‐α1B cells; type: cell-based
[13] = target: T3, human α1D‐adrenoceptor (full length); test: ERK1/2‐phosphorylation (Surefire Alphascreen), CHO‐α1D cells; type: cell-based
[14] = target: T1, human α1A‐adrenoceptor; test: ^3H‐cAMP accumulation, CHO‐α1A cells; type: cell-based; settings: for cAMP accumulation % forskolin: % of 10 µM forskolin response
[15] = target: T2, human α1B‐adrenoceptor; test: ^3H‐cAMP accumulation, CHO‐α1B cells; type: cell-based; settings: CHO‐α1B cells; for cAMP accumulation % forskolin: % forskolin maximum response
[16] = target: T3, human α1D‐adrenoceptor (full length); test: ^3H‐cAMP accumulation, CHO‐α1D cells; type: cell-based; settings: cAMP accumulation without forskolin
[17] = target: T1, human α1A‐adrenoceptor; test: ^3H‐cAMP accumulation in the presence of 10 μM forskolin, CHO‐α1A cells; type: cell-based; settings: for cAMP accumulation (in presence of forskolin) Fold increase: fold increase of the forskolin response
[18] = target: T2, human α1B‐adrenoceptor; test: ^3H‐cAMP accumulation in the presence of 10 μM forskolin, CHO‐α1B cells; type: cell-based
[19] = target: T3, human α1D‐adrenoceptor (full length); test: ^3H‐cAMP accumulation in the presence of 10 μM forskolin, CHO‐α1D cells; type: cell-based
[20] = read-out: Intracellular calcium release Log EC50 (converted)
[21] = read-out: ERK1/2‐phosphorylation Log EC50 (converted)

COc1ccccc1N1CCN(CC2CN3C(=O)N(C)c4ccccc4C3=N2)CC1 (stereo not drawn) [2-MPMDQ]
Intracellular calcium release % ionomycin [1]: No response
ERK1/2-phosphorylation % PDBu [2]: No response
cAMP accumulation % forskolin [3]: No response
cAMP accumulation (in presence of forskolin) % forskolin-stim cAMP [4]: No response
cAMP accumulation (in presence of forskolin) Log EC50 [4]: No response

Cc1cccc([C@H](C)c2cnc[nH]2)c1C [Dexmedetomidine]
Affinity selectivity ratio α1A vs α1B [5]: 6.9 fold
Kd ([5]; Log KD α1A, ^3H‐prazosin whole cell binding): 1320 nM
Kd ([6]; Log KD α1B, ^3H‐prazosin whole cell binding): 9120 nM
Kd ([6]; Log KD, ^3H‐prazosin binding): 9120 nM
Affinity selectivity ratio α1A vs α1D [7]: 1.3 fold
Affinity selectivity ratio α1B vs α1D [7]: 9.3 fold
Kd ([7]; 3H‐prazosin binding Log KD): 1230 nM
Kd ([7]; Log KD α1D, ^3H‐prazosin whole cell binding): 1230 nM
Intracellular calcium release % ionomycin [8]: 57.3 ± 2.8%
Log efficacy ratio KD /EC50 [8]: 1.91
EC50 [8, 20]: 16.2 nM
Intracellular calcium release % ionomycin [9]: 43.6 ± 2.1%
Log efficacy ratio KD /EC50 [9]: 2.29
EC50 [9, 20]: 46.8 nM
Intracellular calcium release % Ionomycin at 100 µM [10]: 13.1 ± 1.7%
Emax [1]: 6.3 ± 4.8%
ERK1/2‐phosphorylation % PDBu [11]: 81.7 ± 4.4%
EC50 [11, 21]: 13.8 nM
ERK1/2‐phosphorylation % PDBu [12]: 55.4 ± 7.4%
EC50 [12, 21]: 132 nM
ERK1/2‐phosphorylation % PDBu at 100 µM [13]: 19.7 ± 3.3%
Emax at 100 µM ([2]; Cricetulus griseus, CHO, read-out: ERK1/2-phosphorylation % PDBu at 100μM): 5.8 ± 2.2%
EC50 ([14]; CHO‐α1A cells, 5 h, read-out: cAMP accumulation Log EC50 (converted)): 513 nM
cAMP accumulation % forskolin ([14]; CHO‐α1A cells): 57.6 ± 5.7%
cAMP accumulation % forskolin [15]: 3.7 ± 0.6%
EC50 ([15]; read-out: cAMP accumulation Log EC50 (converted)): 89.1 nM
cAMP Log EC50 [16]: No response
EC50 ([17]; CHO‐α1A cells, 10 μM forskolin, read-out: cAMP accumulation (in presence of forskolin) Log EC50 (converted)): 85.1 nM
cAMP accumulation (in presence of forskolin) Fold increase ([17]; CHO‐α1A cells): 2.13 ± 0.09 fold
cAMP accumulation (in presence of forskolin) Fold increase ([18]; CHO‐α1B cells, fold increase of the forskolin response): 1.60 ± 0.07 fold
EC50 ([18]; CHO‐α1B cells, in presence of forskolin, read-out: cAMP accumulation (in presence of forskolin) Log EC50 (converted)): 33.1 nM
cAMP (in presence of forskolin) Fold increase ([19]; CHO‐α1D cells, fold increase of the forskolin response): No response
cAMP (in presence of forskolin) Log EC50 ([19]; CHO‐α1D cells, in presence of forskolin, log values given negative): No response
cAMP accumulation (in presence of forskolin) % forskolin-stim cAMP at 100μM ([4]; CHO cells without transfected receptors, response at 100μM only, EC50 not obtainable, % of forskolin-stimulated cAMP): 84.4 ± 4.7%

Cc1cc(C(C)(C)C)cc(C)c1CC1=NCCN1 [Xylometazoline]
Affinity selectivity ratio α1A vs α1B [5]: 60.3 fold
Affinity selectivity ratio α1A vs α1D [5]: 51.3 fold
Kd [5]: 115 nM
Kd [6]: 6920 nM
Kd ([6]; Log KD, ^3H‐prazosin binding): 6920 nM
Affinity selectivity ratio α1B vs α1D [7]: 1.2 fold
Kd [7]: 5890 nM
Kd ([7]; 3H‐prazosin binding Log KD): 5890 nM
EC50 [8]: 2.51 nM
Intracellular calcium release % ionomycin [8]: 64.4 ± 2.7%
Log efficacy ratio KD /EC50 [8]: 1.66
Intracellular calcium release % Ionomycin at 100 µM [9]: 13.6 ± 3.3%
Intracellular calcium release % Ionomycin at 100 µM [10]: 18.6 ± 2.0%
Emax [1]: 15.8 ± 2.7%
EC50 [11]: 3.8 nM
ERK1/2‐phosphorylation % PDBu [11]: 98.8 ± 5.1%
ERK1/2‐phosphorylation potency in CHO‐α1A cells relative to untransfected parent CHO cells [11]: > 10 fold
ERK1/2‐phosphorylation % PDBu [12]: 66.2 ± 6.0%
ERK1/2‐phosphorylation % PDBu [13]: 70.8 ± 7.8%
Emax ([2]; Cricetulus griseus, CHO cells without transfected receptors, maximal response as % of PDBu (10μM) response, mean ± s.e.m., read-out: ERK1/2-phosphorylation % PDBu): 56.2 ± 5.9%
EC50 ([2]; Cricetulus griseus, CHO cells without transfected receptors, mean ± s.e.m., read-out: ERK1/2-phosphorylation Log EC50 (converted)): 89.1 nM
ERK1/2‐phosphorylation response in parent CHO cells ([2]; untransfected cells): stimulated ERK1/2‐phosphorylation responses
EC50 [14]: 126 nM
cAMP accumulation % forskolin ([14]; CHO‐α1A cells): 32.4 ± 5.7%
cAMP accumulation Log EC50 [15]: No response
cAMP accumulation % forskolin [15]: No response
cAMP Log EC50 [16]: No response
EC50 [17]: 30.2 nM
cAMP accumulation (in presence of forskolin) Fold increase ([17]; CHO‐α1A cells): 2.00 ± 0.09 fold
IC50 [18]: 9.12 nM
% inhibition of forskolin‐stimulated cAMP ([18]; CHO‐α1B cells, footnote c): 13.5 ± 1.8%a
Effect on cAMP accumulation in the presence of forskolin, CHO‐α1B cells ([18]; not α1‐mediated): decrease in cAMP accumulation
IC50 [19]: 29.5 nM
% inhibition of forskolin‐stimulated cAMP ([19]; CHO‐α1D cells, decrease in forskolin‐stimulated cAMP accumulation (footnote b)): *26.5 ± 1.1%
Effect on cAMP accumulation in the presence of forskolin, CHO‐α1D cells ([19]; not α1‐mediated): decrease in cAMP accumulation; also recorded: inhibitory cAMP response
% inhibition of forskolin-stimulated cAMP ([4]; CHO cells without transfected receptors, footnote *: % inhibition): 21.0 ± 2.4%*
IC50 ([4]; Cricetulus griseus, CHO cells without transfected receptors, footnote *: log IC50, read-out: log IC50, decrease in forskolin-stimulated cAMP accumulation (converted)): 66.1 nM
Effect on cAMP accumulation in the presence of forskolin, parent cells ([4]; untransfected cells): decrease in cAMP accumulation

C=C[C@@]1(C)CC(=O)[C@]2(O)[C@@]3(C)[C@@H](O)CCC(C)(C)[C@@H]3[C@H](O)[C@H](OC(C)=O)[C@@]2(C)O1 [forskolin]
cAMP accumulation response fold over basal ([3]; parent CHO cells, 10μM, n=6): 39.5 ± 3.2 fold over basal
